Experimental data reported in US8232426B2, “Aminoethylaromatic compounds suitable for treating disorders that respond to modulation of the dopamine D3 receptor” (Abbott GmbH & Co. KG, priority 2004, dated 2012).
Counter-ions that a name gives are not always drawn. Like-named read-outs stand apart in the source and are kept apart here.

Experiments:
[1] = molecular target: T1, human dopamine D2L receptors (long isoform) (Homo sapiens, UniProt P14416); assay: Dopamine D2L receptor binding ([125I] iodospiperone displacement); conditions: selectivity ratio of receptor binding constants, D2L versus D3, HEK-293 membranes
T1 construct: expressed in transfected cells; host or cells: HEK-293
Experimental: (§1) Each assay mixture was run in triplicate. • The incubation buffer contained 50 mM tris, 120 mM NaCl, 5 mM KCl, 2 mM CaCl2, 2 mM MgCl2 and 0.1% bovine serum albumin, 10 μM quinolone and 0.1% ascorbic acid (prepared fresh daily). […] Each assay mixture was run in triplicate. • The incubation buffer contained 50 mM tris, 120 mM NaCl, 5 mM KCl, 2 mM CaCl2, 2 mM MgCl2 and 0.1% bovine serum albumin. The buffer was adjusted to pH 7.4 with HCl. • Measurement and Analysis: • After having been incubated at 25° C. for 60 minutes, the assay mixtures were filtered through a Whatman GF/B glass fiber filter under vacuum using a cell collecting device. The filters were transferred to scintillation viols using a filter transfer system. After 4 ml of Ultima Gold® (Packard) have been added, the samples were shaken for one hour and the radioactivity was then counted in a Beta-Counter (Packard, Tricarb 2000 or 2200CA).

[2] = molecular target: T2, human dopamine D3 receptors (Homo sapiens, UniProt P35462); assay: Dopamine D3 receptor binding ([125I]-iodosulpride displacement)
T2 construct: expressed in transfected cells; host or cells: HEK-293
Experimental: as §1

[3] = membranes of HEK-293 cells stably expressing human D3 receptor, 0.1 nM [125I]-iodosulpride, 25° C., 60 minutes, read-out: Ki(D3)*

T2 sequence (P35462 whole entry): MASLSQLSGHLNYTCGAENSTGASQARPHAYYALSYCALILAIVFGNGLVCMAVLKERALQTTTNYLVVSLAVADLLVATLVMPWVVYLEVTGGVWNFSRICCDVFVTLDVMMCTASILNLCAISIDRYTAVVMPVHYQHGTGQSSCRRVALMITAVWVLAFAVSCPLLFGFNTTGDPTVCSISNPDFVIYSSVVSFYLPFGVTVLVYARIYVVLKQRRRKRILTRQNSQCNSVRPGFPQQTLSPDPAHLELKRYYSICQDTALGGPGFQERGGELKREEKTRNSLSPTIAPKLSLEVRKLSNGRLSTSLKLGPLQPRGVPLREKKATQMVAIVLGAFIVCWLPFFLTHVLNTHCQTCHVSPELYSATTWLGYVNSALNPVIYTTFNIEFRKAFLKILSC
T1 sequence (P14416 whole entry, canonical isoform): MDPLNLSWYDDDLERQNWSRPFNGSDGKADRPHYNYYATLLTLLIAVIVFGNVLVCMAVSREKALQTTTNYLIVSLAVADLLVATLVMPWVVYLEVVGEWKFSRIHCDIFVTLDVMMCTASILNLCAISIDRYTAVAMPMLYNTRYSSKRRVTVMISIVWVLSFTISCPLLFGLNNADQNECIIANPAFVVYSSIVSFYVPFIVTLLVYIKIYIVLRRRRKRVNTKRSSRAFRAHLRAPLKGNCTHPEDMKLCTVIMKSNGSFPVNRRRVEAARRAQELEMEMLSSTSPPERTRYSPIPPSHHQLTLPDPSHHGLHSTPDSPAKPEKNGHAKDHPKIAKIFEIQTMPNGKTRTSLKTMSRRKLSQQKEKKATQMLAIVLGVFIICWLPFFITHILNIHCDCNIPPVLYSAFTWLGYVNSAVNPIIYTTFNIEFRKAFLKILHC

Structure (SMILES)	Ki(D2)*/Ki(D3)* [1]	Ki [2]	Ki [2, 3]
CCCN[C@@H](C)Cc1ccc(NS(=O)(=O)c2ccc(OC(F)(F)F)cc2)cc1 [Example 1, N-[4-((S)-2-Propylamino-propyl)-phenyl]-4-trifluoromethoxy-benzenesulfonamide]	41	0.043 µM	–
CCCN[C@H](C)Cc1ccc(NS(=O)(=O)c2ccc(OC(F)(F)F)cc2)cc1 [Example 2, N-[4-((R)-2-Propylamino-propyl)-phenyl]-4-trifluoromethoxy-benzenesulfonamide]	57	0.021 µM	–
CCCNC(C)Cc1ccc(NS(=O)(=O)c2ccc(C(C)C)cc2)cc1.Cl (centres unmarked) [Example 3, 4-Isopropyl-N-[4-(2-propylamino-propyl)-phenyl]-benzenesulfonamide×HCl]	33	–	0.0028 µM
CCCNCCc1ccc(NS(=O)(=O)c2ccc(C(C)C)cc2)cc1.Cl [Example 6, 4-Isopropyl-N-[4-(2-propylamino-ethyl)-phenyl]-benzenesulfonamide×HCl]	22	–	0.0022 µM
CC(C)c1ccc(S(=O)(=O)Nc2ccc(CCNCC3CC3)cc2)cc1 [Example 7, N-{4-[2-(Cyclopropylmethyl-amino)-ethyl]-phenyl}-4-isopropyl-benzenesulfonamide×HCl]	23	–	0.018 µM
CCCN(CCC)CCc1ccc(NS(=O)(=O)c2ccc(C(C)C)cc2)cc1 [Example 8, N-[4-(2-Dipropylamino-ethyl)-phenyl]-4-isopropyl-benzenesulfonamide×HCl]	54	–	0.0002 µM
CCCN(CCC)CCc1ccc(N(C)S(=O)(=O)c2ccc(C(C)C)cc2)cc1 [Example 9, N-[4-(2-Dipropylamino-ethyl)-phenyl]-4-isopropyl-N-methyl-benzenesulfonamide×HCl]	40	–	0.002 µM
CCCNCCc1ccc(NS(=O)(=O)c2ccc(C(C)C)cc2)cn1 [Example 10, 4-Isopropyl-N-[6-(2-propylamino-ethyl)-pyridin-3-yl]-benzenesulfonamide×2HCl]	53	–	0.042 µM
CCCN1CCCC1Cc1ccc(NS(=O)(=O)c2ccc(C(C)C)cc2)cc1 (centres unmarked) [Example 11, 4-Isopropyl-N-[4-(1-propyl-pyrrolidin-2-ylmethyl)-phenyl]-benzenesulfonamide]	16	–	0.00058 µM
C=CCNCCc1ccc(NS(=O)(=O)c2ccc(C(C)C)cc2)cc1.Cl [Example 13, N-[4-(2-Allylamino-ethyl)-phenyl]-4-isopropyl-benzenesulfonamide×HCl]	74	–	0.0017 µM
C=CCNCCc1ccc(N(C)S(=O)(=O)c2ccc(C(C)C)cc2)cc1.Cl [Example 14, N-[4-(2-Allylamino-ethyl)-phenyl]-4-isopropyl-N-methyl-benzenesulfonamide×HCl]	40	–	0.027 µM
C=CCNCCc1ccc(N(CCC)S(=O)(=O)c2ccc(C(C)C)cc2)cc1.Cl [Example 15, N-[4-(2-Allylamino-ethyl)-phenyl]-4-isopropyl-N-propyl-benzenesulfonamide×HCl]	22	–	0.022 µM
C=CCNCCc1ccc(NS(=O)(=O)c2ccc(OC(F)(F)F)cc2)cc1.Cl [Example 16, N-[4-(2-Allylamino-ethyl)-phenyl]-4-trifluoromethoxy-benzenesulfonamide×HCl]	79	–	0.031 µM
C=CCNCCc1ccc(N(C)S(=O)(=O)c2ccc(OC(F)(F)F)cc2)cc1 [Example 17, N-[4-(2-Allylamino-ethyl)-phenyl]-N-methyl-4-trifluoromethoxy-benzenesulfonamide×HCl]	75	–	0.034 µM
C=CCNCCc1ccc(N(CCC)S(=O)(=O)c2ccc(OC(F)(F)F)cc2)cc1.Cl [Example 18, N-[4-(2-Allylamino-ethyl)-phenyl]-N-propyl-4-trifluoromethoxy-benzenesulfonamide×HCl]	24	–	0.037 µM
C=CCN(CC=C)CCc1ccc(NS(=O)(=O)c2ccc(C(C)C)cc2)cc1 [Example 19, N-[4-(2-Diallylamino-ethyl)-phenyl]-4-isopropyl-benzenesulfonamide×HCl]	42	–	0.0027 µM
C=CCN(CC=C)CCc1ccc(NS(=O)(=O)c2ccc(OC(F)(F)F)cc2)cc1 [Example 20, N-[4-(2-Diallylamino-ethyl)-phenyl]-4-trifluoromethoxy-benzenesulfonamide×HCl]	65	–	0.064 µM
C=CCNCCc1cccc(NS(=O)(=O)c2ccc(C(C)C)cc2)c1 [Example 21, N-[3-(2-Allylamino-ethyl)-phenyl]-4-isopropyl-benzenesulfonamide, reference compound]	62	0.022 µM	–
C=CCN(CC=C)CCc1ccc(CS(=O)(=O)c2ccc(C(C)C)cc2)cc1 [Example 23, Diallyl-{2-[4-(4-isopropyl-benzenesulfonylmethyl)-phenyl]-ethyl}-amine×HCl]	59	0.0084 µM	–
CCCN(CCC)CCc1ccc(CS(=O)(=O)c2ccc(C(C)C)cc2)cc1 [Example 25, Dipropyl-{2-[4-(4-isopropyl-benzenesulfonylmethyl)-phenyl]-ethyl}-amine×HCl]	175	–	0.0005 µM
CCCN(CCC)CCc1ccc(CS(=O)(=O)c2ccc(OC(F)(F)F)cc2)cc1 [Example 26, Dipropyl-{2-[4-(4-trifluoromethoxy-benzenesulfonylmethyl)-phenyl]-ethyl}-dipropyl-amine×HCl]	170	0.0039 µM	–
CCCNCCc1ccc(CS(=O)(=O)c2ccc(C(C)C)cc2)cc1.Cl [Example 28, {2-[4-(4-Isopropyl-benzenesulfonylmethyl)-phenyl]-ethyl}-propyl-amine×HCl]	130	–	0.0048 µM
